# Data as given in ChEMBL document CHEMBL4251753, “Discovery of Potent 2-Aryl-6,7-dihydro-5 H-pyrrolo[1,2- a]imidazoles as WDR5-WIN-Site Inhibitors Using Fragment-Based Methods and Structure-Based Design” (J Med Chem, 2018).
# Test system: MV4-11
# Experiment: Antiproliferative activity against human MV4-11 cells after 7 days by cell titer glo assay
# Type: functional
# Details: MV4-11, 168 h
row,Compound,GI50
1,O=C(Cc1ccc(Cl)c(Cl)c1)N[C@@H]1CCc2ccc(-c3cn4c(n3)CCC4)cc21,8.89 µM
2,COc1cc(C(=O)N[C@@H]2CCCc3ccc(-c4cn5c(n4)CCC5)cc32)ccc1C,22.3 µM
3,Cc1cc(C(=O)N[C@@H]2CCc3ccc(-c4cn5c(n4)CCC5)cc32)ccn1,> 30 µM
4,COc1cc(C(=O)N[C@@H]2CCc3ccc(-c4cn5c(n4)CCC5)cc32)cc(OC)c1C,7.25 µM
